Experimental data published in patent US7169763B2, “Cytochrome P450 3A inhibitors and enhancers” (priority 2002, dated 2007).

Legend:
CYP3A = experiment: Determination of CYP3A activity by erythromycin demethylation method (rat liver homogenate/microsomes); parameters: CYP3A Activity (percentage of control): dose or concentration left out as unconfirmed; details: for inhibitory effects on rat liver CYP3A (in words): summary of Table 1; for enhancing effects on rat hepatic CYP3A (in words): summary of Table 2
in vivo = details: beagle, dog, po, 10 mg/kg
[1] = inhibitor concentration 0.004, Table 1 Inhibition
[2] = inhibitor concentration 0.04, Table 1 Inhibition
[3] = inhibitor concentration 0.4, Table 1 Inhibition
[4] = inhibitor concentration 1.55, Table 1 Inhibition
[5] = inhibitor concentration 4.3, Table 1 Inhibition
[6] = inhibitor concentration 77.07, Table 1 Inhibition
[7] = inhibitor concentration 0.1, Table 1 Inhibition

| Compound | CYP3A Activity (percentage of control) (CYP3A; [1]) | CYP3A Activity (percentage of control) (CYP3A; [2]) | CYP3A Activity (percentage of control) (CYP3A; [3]) | also measured |
| --- | --- | --- | --- | --- |
| Oc1cc(O)c2c(c1)O[C@H](c1ccc(O)c(O)c1)[C@@H](O)C2 (relative stereo) [(+)-catechin, 2R-trans-2-(3,4-dihydroxyphenyl)-3,4-dihydro-2H-1-benopyran-3,5,7-triol] | 59.31 ± 2.94 percentage of control | 62.70 ± 8.53 percentage of control | 45.42 ± 6.13 percentage of control | inhibitory effects on rat liver CYP3A (in words) (CYP3A): particularly effective |
| CC(=O)OCCCc1ccccc1 [3-phenylpropyl acetate] | 60.33 ± 2.18 percentage of control | 70.50 ± 0.59 percentage of control | 53.89 ± 4.43 percentage of control | – |
| Oc1cc(O)c2c(c1)O[C@@H](c1ccc(O)c(O)c1)[C@@H](O)C2 [(+)-epicatechin] | – | – | – | CYP3A Activity (percentage of control) (CYP3A; inhibitor concentration 0.45, Table 1 Inhibition): 14.66 ± 7.66 percentage of control; CYP3A Activity (percentage of control) (CYP3A; inhibitor concentration 1.41, Table 1 Inhibition): 23.29 ± 5.28 percentage of control; CYP3A Activity (percentage of control) (CYP3A; [4]): 27.96 ± 5.07 percentage of control |
| O=C(O)c1cc(O)c(O)c(O)c1 [Gallic acid] | – | – | – | CYP3A Activity (percentage of control) (CYP3A; [5]): 43.86 ± 4.45 percentage of control; CYP3A Activity (percentage of control) (CYP3A; inhibitor concentration 24.66, Table 1 Inhibition): 43.65 ± 0.57 percentage of control; CYP3A Activity (percentage of control) (CYP3A; [6]): 44.09 ± 4.39 percentage of control; inhibitory effects on rat liver CYP3A (in words) (CYP3A): particularly effective |
| CC1(C)[C@@H](O[C@H]2O[C@H](C(=O)O)[C@@H](O)[C@H](O)[C@H]2O[C@@H]2O[C@H](C(=O)O)[C@@H](O)[C@H](O)[C@H]2O)CC[C@]2(C)[C@H]3C(=O)C=C4[C@@H]5C[C@@](C)(C(=O)O)CC[C@]5(C)CC[C@@]4(C)[C@]3(C)CC[C@@H]12 [Glycyrrhizin] | – | – | – | CYP3A Activity (percentage of control) (CYP3A; inhibitor concentration 0.269, Table 1 Inhibition): 42.96 ± 3.75 percentage of control |
| CCCCCCCCCCCCO [Lauryl alcohol] | – | – | – | CYP3A Activity (percentage of control) (CYP3A; inhibitor concentration 739.88, Table 1 Inhibition): 18.58 ± 1.46 percentage of control; inhibitory effects on rat liver CYP3A (in words) (CYP3A): particularly effective |
| O=c1cc(-c2ccc(O)c(O)c2)oc2cc(O)cc(O)c12 [Luteolin] | 88.22 ± 0.00 percentage of control | 94.10 ± 10.37 percentage of control | 106.51 ± 8.16 percentage of control | CYP3A Activity (percentage of control) (CYP3A; inhibitor concentration 1.56, Table 1 Inhibition): 36.32 ± 1.26 percentage of control |
| O=C1C[C@@H](c2ccc(O)cc2)Oc2cc(O)cc(O)c21 [Nariagenin] | 81.63 ± 5.21 percentage of control | 62.37 ± 12.33 percentage of control | 60.54 ± 15.51 percentage of control | CYP3A Activity (percentage of control) (CYP3A; [4]): 47.07 ± 9.87 percentage of control |
| C[C@@H]1O[C@@H](O[C@H]2[C@H](Oc3cc(O)c4c(c3)O[C@H](c3ccc(O)cc3)CC4=O)O[C@H](CO)[C@@H](O)[C@@H]2O)[C@H](O)[C@H](O)[C@H]1O [Narigin] | – | – | – | CYP3A Activity (percentage of control) (CYP3A; inhibitor concentration 21.67, Table 1 Inhibition): 56.22 ± 22.87 percentage of control; inhibitory effects on rat liver CYP3A (in words) (CYP3A): particularly effective |
| CC1(C)CC[C@]2(C(=O)O)CC[C@]3(C)C(=CC[C@@H]4[C@@]5(C)CC[C@H](O)C(C)(C)[C@@H]5CC[C@]43C)[C@@H]2C1 [Oleanolic acid] | – | – | – | CYP3A Activity (percentage of control) (CYP3A; inhibitor concentration 0.522, Table 1 Inhibition): 55.95 ± 4.45 percentage of control; CYP3A Activity (percentage of control) (CYP3A; [6]): 44.64 ± 7.92 percentage of control |
| CCC(C)(C)C(=O)O[C@H]1C[C@@H](C)C=C2C=C[C@H](C)[C@H](CC[C@@H]3C[C@@H](O)CC(=O)O3)[C@H]21 [Simvastatin] | – | – | – | MRT (in vivo): 2.79 h; Tmax (in vivo): 0.75 h; half-life (in vivo): 1.47 h |
| COc1ccc([C@@H]2CC(=O)c3c(O)cc(O[C@@H]4O[C@H](CO[C@@H]5O[C@@H](C)[C@H](O)[C@@H](O)[C@H]5O)[C@@H](O)[C@H](O)[C@H]4O)cc3O2)cc1O [hesperidin] | 24.05 ± 5.06 percentage of control | 103.79 ± 6.37 percentage of control | 80.75 ± 4.18 percentage of control | inhibitory effects on rat liver CYP3A (in words) (CYP3A): particularly effective |
| C[C@@H]1O[C@@H](Oc2c(-c3ccc(O)c(O)c3)oc3cc(O)cc(O)c3c2=O)[C@H](O)[C@H](O)[C@H]1O [quercitrin] | 55.06 ± 5.34 percentage of control | 73.56 ± 5.96 percentage of control | 98.67 ± 7.51 percentage of control | – |
| O=c1cc(-c2ccccc2)oc2c1ccc1ccccc12 [α-Naphthoflavone] | – | – | – | CYP3A Activity (percentage of control) (CYP3A; inhibitor concentration 1.24, Table 1 Inhibition): 43.52 ± 2.93 percentage of control |
| CC1=CCC(C(C)(C)O)CC1 (stereo not drawn) [α-terpineol] | – | – | – | CYP3A Activity (percentage of control) (CYP3A; inhibitor concentration 501.93, Table 1 Inhibition): 9.29 ± 1.07 percentage of control |
| O=c1cc(-c2ccccc2)oc2ccc3ccccc3c12 [β-Naphthoflavone] | – | – | – | CYP3A Activity (percentage of control) (CYP3A; inhibitor concentration 0.87, Table 1 Inhibition): 42.41 ± 4.08 percentage of control |
| C=CC(=C)CCC=C(C)C [β-myrcene] | – | – | – | CYP3A Activity (percentage of control) (CYP3A; [5]): 55.95 ± 4.45 percentage of control; inhibitory effects on rat liver CYP3A (in words) (CYP3A): particularly effective |
| Luteolin-7-glycoside | – | 98.71 ± 19.74 percentage of control | – | CYP3A Activity (percentage of control) (CYP3A; enhancer concentration 0.004, Table 2 Enhancement): 122.89 ± 40.06 percentage of control; CYP3A Activity (percentage of control) (CYP3A; enhancer concentration 0.1, Table 2 Enhancement): 113.09 ± 5.99 percentage of control; CYP3A Activity (percentage of control) (CYP3A; inhibitor concentration 0.0078, Table 1 Inhibition): 46.68 ± 0.17 percentage of control; enhancing effects on rat hepatic CYP3A (in words) (CYP3A): particularly effective |

The next lines start with results.

| CYP3A Activity (percentage of control) (CYP3A; [1]) | CYP3A Activity (percentage of control) (CYP3A; [2]) | CYP3A Activity (percentage of control) (CYP3A; [3]) | Compound | also measured |
| --- | --- | --- | --- | --- |
| 71.26 ± 1.95 percentage of control | 60.28 ± 1.95 percentage of control | 42.53 ± 0.49 percentage of control | CC(Cc1ccc(O)c(O)c1)C(C)Cc1ccc(O)c(O)c1 (stereo not drawn) [Nordihydroguaiaretic Acid] | CYP3A Activity (percentage of control) (CYP3A; inhibitor concentration 3.09, Table 1 Inhibition): 8.96 ± 1.79 percentage of control; inhibitory effects on rat liver CYP3A (in words) (CYP3A): particularly effective |
| 52.96 ± 1.15 percentage of control | 54.64 ± 5.16 percentage of control | – | O=c1cc(-c2ccc(O)cc2)oc2cc(O)cc(O)c12 [apigenin] | CYP3A Activity (percentage of control) (CYP3A; enhancer concentration 0.22, Table 2 Enhancement): 108.62 ± 1.28 percentage of control; CYP3A Activity (percentage of control) (CYP3A; [7]): 59.94 ± 2.50 percentage of control; enhancing effects on rat hepatic CYP3A (in words) (CYP3A): particularly effective |
| 84.66 ± 3.04 percentage of control | 81.59 ± 4.76 percentage of control | – | O=c1cc(-c2ccccc2)oc2cc(O)c(O)c(O)c12 [baicalein] | CYP3A Activity (percentage of control) (CYP3A; [7]): 64.47 ± 4.75 percentage of control |
| 64.59 ± 3.34 percentage of control | 63.71 ± 11.57 percentage of control | 59.57 ± 5.41 percentage of control | CC(C)[C@@H](C)/C=C/[C@@H](C)[C@H]1CC[C@H]2C3=CC=C4C[C@@H](O)CC[C@]4(C)[C@H]3CC[C@]12C [ergosterol] | – |
| 78.78 ± 2.76 percentage of control | 92.06 ± 0.77 percentage of control | – | COc1ccc(-c2coc3cc(O)ccc3c2=O)cc1 [formononetin] | CYP3A Activity (percentage of control) (CYP3A; enhancer concentration 0.123, Table 2 Enhancement): 113.74 ± 8.87 percentage of control; CYP3A Activity (percentage of control) (CYP3A; [7]): 70.37 ± 5.79 percentage of control; enhancing effects on rat hepatic CYP3A (in words) (CYP3A): particularly effective |
| 84.66 ± 3.04 percentage of control | 75.89 ± 3.31 percentage of control | 48.25 ± 4.62 percentage of control | COc1ccc([C@@H]2CC(=O)c3c(O)cc(O)cc3O2)cc1O [hesperetin] | inhibitory effects on rat liver CYP3A (in words) (CYP3A): particularly effective |
| 64.62 ± 1.53 percentage of control | 66.83 ± 5.03 percentage of control | – | O=c1c(O[C@@H]2O[C@H](CO)[C@@H](O)[C@H](O)[C@H]2O)c(-c2ccc(O)c(O)c2)oc2cc(O)cc(O)c12 [isoquercitrin] | CYP3A Activity (percentage of control) (CYP3A; inhibitor concentration 0.2, Table 1 Inhibition): 51.46 ± 6.68 percentage of control |
| 73.03 ± 2.30 percentage of control | 76.57 ± 3.83 percentage of control | 80.11 ± 8.11 percentage of control | O=c1c(O)c(-c2ccc(O)cc2)oc2cc(O)cc(O)c12 [kaempferol] | CYP3A Activity (percentage of control) (CYP3A; enhancer concentration 1.46, Table 2 Enhancement): 111.35 ± 27.88 percentage of control |
| 75.76 ± 7.97 percentage of control | 77.52 ± 15.98 percentage of control | 91.62 ± 0.76 percentage of control | O=c1c(O)c(-c2ccc(O)c(O)c2)oc2cc(O)cc(O)c12 [quercetin] | – |
| 79.71 ± 1.76 percentage of control | 67.88 ± 0.49 percentage of control | 65.63 ± 1.29 percentage of control | C=C[C@H]1[C@H](O[C@@H]2O[C@H](CO)[C@@H](O)[C@H](O)[C@H]2O)OC=C2C(=O)OCC[C@]21O [swertiamarin] | – |
| 89.00 ± 12.02 percentage of control | 84.87 ± 6.93 percentage of control | 90.00 ± 4.20 percentage of control | O=c1ccc2ccc(O)cc2o1 [umbelliferone] | CYP3A Activity (percentage of control) (CYP3A; inhibitor concentration 1.84, Table 1 Inhibition): 76.22 ± 2.73 percentage of control; CYP3A Activity (percentage of control) (CYP3A; inhibitor concentration 5.43, Table 1 Inhibition): 98.85 ± 14.19 percentage of control; CYP3A Activity (percentage of control) (CYP3A; inhibitor concentration 16.96, Table 1 Inhibition): 90.33 ± 1.63 percentage of control |
